From PubChem BioAssay AID1259411 (Chemical Carcinogenesis Research Information System (CCRIS), 2018)
Activity calls are given as the source filed them. How the calls were made is not given here.

Test system: rodent carcinogenicity bioassays, tumor incidence
Assay: CCRIS carcinogenicity studies
Settings: Dose: 0
Procedure, shortened: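 NCI-built, expert-reviewed records of carcinogenicity and related test outcomes (mutagenicity, tumor promotion/inhibition) compiled from published and report sources, historical span 1985-2011, not updated.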

Measured: carcinogen call

C=CC=O
inactive: Species: MOUSE, Strain/Sex: B6C3F1/FEMALE, Route: INTRAPERITONEAL, 75 NMOL TOTAL DOSE, 1/3 AND 2/3 OF THE TOTAL DOSE ADMINISTERED AT 8 AND 15 DAYS OF AGE RESPECTIVELY, ANIMALS TERMINAT inactive; negative | Species: MOUSE, Strain/Sex: B6C3F1/FEMALE, Route: INTRAPERITONEAL, 150 NMOL TOTAL DOSE, 1/3 AND 2/3 OF THE TOTAL DOSE ADMINISTERED AT 8 AND 15 DAYS OF AGE RESPECTIVELY, ANIMALS TERMINA inactive; negative | Species: MOUSE, Strain/Sex: B6C3F1/MALE, Route: INTRAPERITONEAL, 75 NMOL TOTAL DOSE, 1/3 AND 2/3 OF THE TOTAL DOSE ADMINISTERED AT 8 AND 15 DAYS OF AGE RESPECTIVELY, ANIMALS TERMINAT inactive; negative | Species: MOUSE, Strain/Sex: B6C3F1/MALE, Route: INTRAPERITONEAL, 150 NMOL TOTAL DOSE, 1/3 AND 2/3 OF THE TOTAL DOSE ADMINISTERED AT 8 AND 15 DAYS OF AGE RESPECTIVELY, ANIMALS TERMINA inactive; negative | Species: MOUSE, Strain/Sex: CD-1/FEMALE, Route: GAVAGE, 0.5, 2, 4.5 MG/KG (STABILIZED WITH 0.25%-0.3% HYDROQUINONE) 1/D FOR 18 MO (STUDY DURATION: 18 MO), 0.5, 2, 4.5 MG/KG (STABILIZED WITH 0.25%-0.3% HYDROQUINONE) 1/D FOR 18 MO (STUDY DURATION: 18 MO) inactive; negative | Species: MOUSE, Strain/Sex: CD-1/MALE, Route: GAVAGE, 0.5, 2, 4.5 MG/KG (STABILIZED WITH 0.25%-0.31 HYDROQUINONE) 1/D FOR 18 MO (STUDY DURATION: 18 MO), 0.5, 2, 4.5 MG/KG (STABILIZED WITH 0.25%-0.31 HYDROQUINONE) 1/D FOR 18 MO (STUDY DURATION: 18 MO) inactive; negative | Species: RAT, Strain/Sex: F344/FEMALE, Route: ORAL, 625 MG/L IN DRINKING WATER 5 D/WK FOR 100 WK (STUDY DURATION: 130 WK) inactive; negative | Species: RAT, Strain/Sex: F344/MALE, Route: INTRAPERITONEAL, 2 MG/KG 2/WK FOR 9 WK THEN 1.5 MG/KG ONCE IN WK 4 THEN 2/WK FOR 7 WK FOLLOWED BY 1 MG/KG ONCE IN WK 12, TWICE IN WK 1 inactive; negative | Species: RAT, Strain/Sex: F344/MALE, Route: ORAL, 100, 250, 625 MG/L IN DRINKING WATER 5 D/WK FOR UP TO 120 WK (STUDY DURATION: 130 WK), 100, 250, 625 MG/L IN DRINKING WATER 5 D/WK FOR UP TO 120 WK (STUDY DURATION: 130 WK) inactive; negative | Species: RAT, Strain/Sex: SPRAGUE-DAWLEY/FEMALE, Route: GAVAGE, 0.05, 0.5, 2.5 MG/KG/D IN WATER FOR 102 WK (STUDY DURATION: 24 MO), 0.05, 0.5, 2.5 MG/KG/D IN WATER FOR 102 WK (STUDY DURATION: 24 MO) inactive; negative | Species: RAT, Strain/Sex: SPRAGUE-DAWLEY/MALE, Route: GAVAGE, 0.05, 0.5, 2.5 MG/KG/D IN WATER FOR 102 WK (STUDY DURATION: 24 MO), 0.05, 0.5, 2.5 MG/KG/D IN WATER FOR 102 WK (STUDY DURATION: 24 MO) inactive; negative
